# Reference: patent publication US20060100291A1, “Antibacterial compounds” (priority 2001, published 2006)
# “Also recorded” adds a separate entry of the source. Like-named read-outs stand apart in the source and are kept apart here.
# Legend:
# [1] = test system: Methicillin Resistant Staphylococcus aureus (MRSA) (strain 1126); assay: MIC in Mueller Hinton broth, serial doubling dilutions; assay type: cell-based
# Experimental: Minimum inhibitory concentrations [MIC] were tested in Mueller Hinton [MH] broth. The human pathogen Methicillin Resistant Staphylococcus aureus (MRSA) (strain 1126) was provided by the University of Otago. Glass vials (30 mL) containing MH broth (10 mL) were inoculated from an actively growing culture and incubated overnight at 37° C. A standardized procedure to suspend each compound in MH broth was used. Each compound (5 mg) was dissolved in ethanol (1 mL). MH broth (9 mL) was then added to the ethanol containing the compound, resulting in stock solution concentrations of 500 μg /mL.
# The MIC for each compound was determined by carrying out 3 replicate serial dilutions in Nunc® 48 well microtiter plates. To test the MICs, each compound stock solution was vigorously mixed before I mL was dispensed aseptically by pipette into 3 of the 6 first wells of a microtiter plate. MH broth (0.5 mL) was dispensed into all wells of the microtiter plate except the first row. Serial doubling dilutions were carried out through 12 wells (1½ microtiter plates). Mixing was carried out by repeated pipetting of 100 μL amounts. 500 μL was discarded from the last wells to conserve the […] compound concentration. Each well was inoculated with an aliquot (25 μL) of MRSA suspension diluted by 10^−2. All test and control microtiter plates were incubated at 37° C. and read after 48 h and 72 h.
# [2] = test system: Bacillus subtilis (ATCC strain 19659); assay: Disc diffusion assay; assay type: cell-based; conditions: for zone of inhibition at 60 µg/disc / BS activity: width of zone of growth inhibition: disc assay dosed at 60 μg/disc, 24 h; for zone of inhibition at 60 µg/disc: read-out: BS activity: width of zone of growth inhibition
# Experimental: The compounds of Examples 1 to 7 were also tested against another Gram-positive bacterium, Bacillus subtilis (ATCC strain 19659), in disc diffusion assays. […] The positive control in this assay was the clinically proven antimicrobial agent chloramphenicol (30 μg/disc), which gave a 12 mm zone.
# [3] = test system: Swiss male mice (Mus musculus); assay: Acute toxicity in mice, intraperitoneal injection; assay type: in vivo; conditions: for acute toxic effects: ip in cottonseed oil, up to 400 mg/kg, observed 6 h plus 18 h
# Experimental: Compound I has been tested in mice for acute toxicity.
# A single trial was completed using twenty-five Swiss male mice (Mus musculus), weighing 20 g±2 g. Mice were selected by gender and weight, individually identified and randomly placed in 5 cages of 5 mice each. Mice were injected intraperitoneally with one of five levels of antibiotic [0 (control), 1, 2, 4 and 8 mg/ml]. Cottonseed oil was used as a carrier solution for the test substance. One mL samples were mixed before being injected using 1.0 ml syringes and 21G needles. Mice were observed continuously for 6 hours and any deaths or adverse symptoms recorded. This initial hour observation period was subsequently followed by another 18-hour monitoring period. […] This was also the case for mice injected solely with cottonseed oil. This is in direct contrast to weekly calibration assays using the toxic control saxitoxin dihydrochloride.
# listera monocytogenes = assay: MIC against Listeria, by similar methods; assay type: cell-based
# [4] = test system: S. aureus OUM1126 Oxacillin resistant (MRSA); assay: Broth microdilution MIC (THB); assay type: cell-based; conditions: Staphylococcus aureus, three experiments
# Experimental: (§1) Minimum inhibitory concentrations (MICs) were determined using a broth microdilution method. Bacterial isolates were inoculated into Todd-Hewitt broth (THB) and incubated at 37 C with shaking (200 rpm) for 18 h. Overnight cultures were diluted to an OD of 0.01 (at […], 1 cm light path) to give a final inoculum for broth microdilution of OD 0.005. Doubling dilutions of the test compounds were prepared in THB in microtitre plates. Tween 80 (Sigma) was added at a final concentration of 14 % to enhance solubility. The range of concentrations tested (with doubling dilutions) was 16 μg/mL to 0.063 μg/mL. Microtitre plates were incubated at 37 ° C. for 18 h with gentle shaking. Plates were read using a microplate reader (Multiskan Ascent, Labsystems), measuring the OD at 595 nm. Minimum bactericidal concentrations (MBCs) were determined by placing 5 μL of culture from wells without growth onto THB plates and incubating at 37° C. for 18 h. The MBC was the lowest concentration without growth from the drop of culture.
# [5] = test system: S. aureus AS92/349 Mupirocin resistant; assay: Broth microdilution MIC (THB); assay type: cell-based; conditions: three experiments
# Experimental: as §1
# [6] = test system: S. aureus PC-3 Vancomycin/Oxacillin resistant (GISA); assay: Broth microdilution MIC (THB); assay type: cell-based; conditions: Staphylococcus aureus, three experiments
# Experimental: as §1
# [7] = test system: S. aureus OUM1127 Erythromycin resistant; assay: Broth microdilution MIC (THB); assay type: cell-based; conditions: Staphylococcus aureus, three experiments
# Experimental: as §1
# [8] = test system: Enterococcus faecalis ATCC29212 Wild-type (fully susceptible); assay: Broth microdilution MIC (THB); assay type: cell-based; conditions: three experiments
# Experimental: as §1
# [9] = test system: S. aureus ATCC25923 Wild-type (fully susceptible); assay: Broth microdilution MIC (THB); assay type: cell-based; conditions: three experiments
# Experimental: as §1
# [10] = test system: S. aureus ST94/1208 Oxacillin/Gentamicin resistant (cMRSA); assay: Broth microdilution MIC (THB); assay type: cell-based; conditions: Staphylococcus aureus, three experiments
# Experimental: as §1
# [11] = test system: Enterococcus faecalis 8A-25 Vancomycin resistant (VRE, vanA); assay: Broth microdilution MIC (THB); assay type: cell-based; conditions: E. faecalis 8A-25 vancomycin resistant (VRE, vanA), three experiments
# Experimental: as §1
# [12] = test system: E. faecium AR99/118 Ampicillin resistant; assay: Broth microdilution MIC (THB); assay type: cell-based; conditions: Enterococcus faecium, three experiments
# Experimental: as §1
# [13] = test system: Enterococcus faecalis CD2-49 Gentamicin resistant; assay: Broth microdilution MIC (THB); assay type: cell-based; conditions: E. faecalis CD2-49 gentamicin resistant, three experiments
# Experimental: as §1
# [14] = test system: Enterococcus and S. aureus strains tested in Table 2; assay: Bacteriostatic/bactericidal concentrations (MIC/MBC) over the strains of Table 2; assay type: cell-based; conditions: all strains of Table 2; read-out: Bacteriocidal concentration (MBC)
# Experimental: as §1
# [15] = background statement, organism not given; cited from earlier work
# [16] = MH broth, 37° C., read after 48 h and 72 h, University of Otago strain 1126, read-out: MRSA activity: upper and lower limits of Minimum Inhibitory Concentration
molecule,measurement,setting,value
"CC1(C)C(=O)C(C2(C=O)CCCCC2)=C(O)C(C)(C)C1=O [Example 4, 5-hydroxy-4(1-oxomethylcyclohexyl)-2,2,6,6-tetramethyl-4-cyclohexene-1,3dione]",melting point,,47.8 °C
same,MIC,[1]; [16],15.6 to 62.5 µg/mL
same,zone of inhibition at 60 µg/disc,"[2]; Bacillus subtilis, ATCC19659",0 mm
"CCCCCCCCCCCCCCCC(=O)C1=C(O)C(C)(C)C(=O)C(C)(C)C1=O [Example 3, 5-hydroxy-4(1-oxohexadecyl)-2,2,6,6-tetramethyl-4-cyclohexene-1,3-dione]",melting point,,39 °C
same,MIC,[1]; [16],2 to 7.8 µg/mL
same,zone of inhibition at 60 µg/disc,"[2]; Bacillus subtilis, ATCC19659",0 mm
"CCCCCCCCCCCC(=O)C1=C(O)C(C)(C)C(=O)C(C)(CC=C(C)C)C1=O (centres unmarked) [Example 7, 5-hydroxy-4-(1-oxododecyl)-2-prenyl-2,6,6trimethyl-4-cyclohexene-1,3-dione]",MIC,[1]; [16],1 to 2 µg/mL
same,zone of inhibition at 60 µg/disc,"[2]; Bacillus subtilis, ATCC19659",0 mm
"CCCCCCCCCC(=O)C1=C(O)C(C)(C)C(=O)C(C)(C)C1=O [Example 2, 5-hydroxy-4-(1-oxodecyl)-2,2,6,6,-tetramethyl-4-cyclohexene-1,3-dione]",BS activity: width of zone of growth inhibition,[2],7 mm
"5-hydroxy-4-(1-oxopropylcyclohexl)-2,6,6-tetramethyl-4-cyclohexene-1,3-dione [Example 5]",BS activity: width of zone of growth inhibition,[2],12 mm
"CCCCCCCCCCCC(=O)C1=C(O)C(C)(C)C(=O)C(C)(C)C1=O [Example 1, 5-hydroxy-4-(1-oxododecyl)-2,2,6,6-tetramethyl-4-cyclohexene-1,3-dione]",MIC,[1]; [16],0.5 to 1 µg/mL
same,zone of inhibition at 60 µg/disc,"[2]; Bacillus subtilis, ATCC19659",3 mm
same,mouse deaths,"[3]; ip in cottonseed oil, 1, 2, 4 and 8 mg/ml, 1 mL",no mouse deaths were recorded
same,acute toxic effects,[3]; listed as Compound I,no toxic effects; also recorded: no adverse toxic symptoms
same,acute toxic effects,[3]; listed as Example I,not toxic to mice
same,MIC,listera monocytogenes,< 3.9 µg/mL
same,MIC,[4],1 µg/mL
same,MIC,"[5]; Staphylococcus aureus, read-out: MIC",1 µg/mL
same,MIC,[5],2 µg/mL
same,MIC,[6],2 µg/mL
same,MIC,[7],1 µg/mL
same,MIC,[8]; E. faecalis ATCC29212 wild-type,0.5 µg/mL
same,MIC,"[8]; Enterococcus faecalis, ATCC29212, E. faecalis ATCC29212 wild-type, read-out: MIC",1 µg/mL
same,MIC,[9]; S. aureus ATCC25923 wild-type,1 µg/mL
same,MIC,"[9]; Staphylococcus aureus, ATCC25923, S. aureus ATCC25923 wild-type, read-out: MIC",2 µg/mL
same,MIC,[10],1 µg/mL
same,MIC,[11],1 µg/mL
same,MIC,[12],2 µg/mL
same,MIC,[13],0.5 µg/mL
same,MIC,"[13]; Enterococcus faecalis, read-out: MIC",1 µg/mL
same,MBC,[14],≥ 8 µg/mL
CCCCCCCCCCCC(=O)C1=C(O)C(CC)(CC)C(=O)C(CC)(CC)C1=O [Example 6],BS activity: width of zone of growth inhibition,[2],0 mm
"CN[C@H](CC(C)C)C(=O)N[C@H]1C(=O)N[C@@H](CC(N)=O)C(=O)N[C@H]2C(=O)N[C@H]3C(=O)N[C@H](C(=O)N[C@H](C(=O)O)c4cc(O)cc(O)c4-c4cc3ccc4O)[C@H](O)c3ccc(c(Cl)c3)Oc3cc2cc(c3O[C@@H]2O[C@H](CO)[C@@H](O)[C@H](O)[C@H]2O[C@H]2C[C@](C)(N)[C@H](O)[C@H](C)O2)Oc2ccc(cc2Cl)[C@H]1O [vancomycin, reference compound]",MIC,[1]; read-out: MRSA activity: upper and lower limits of Minimum Inhibitory Concentration,1.6 to 3.1 µg/mL
same,MIC,[15],approximately 2 μg/ml
"O=C(N[C@H](CO)[C@H](O)c1ccc([N+](=O)[O-])cc1)C(Cl)Cl [chloramphenicol, reference compound]",zone of inhibition at 30 µg/disc,"[2]; Bacillus subtilis, ATCC19659, positive control, 30 μg/disc, read-out: width of zone of inhibition",12 mm
